Experimental data: patent US8962842B2, “2-pyridone antimicrobial compositions” (priority 2010, dated 2015)
Where two headings read alike, the source gives them in different places.

Key:
[1] = test system: Escherichia coli (6 strains); assay: MIC range, broader panel of Quotient Bioresearch strains (Table 4); assay type: cell-based; conditions: for MIC50: read-out: MIC Range Median, Escherichia coli (6 strains)
[2] = test system: Streptococcus pneumonia (5 strains); assay: MIC range, broader panel of Quotient Bioresearch strains (Table 3); conditions: Streptococcus pneumoniae; for MIC50: read-out: MIC Range Median, Streptococcus pneumonia (5 strains)
[3] = test system: Enterococcus faecalis (5 strains); assay: as above; conditions: for MIC50: read-out: MIC Range Median, Enterococcus faecalis (5 strains)
[4] = test system: Haemophilus influenza (5 strains); assay: MIC range, broader panel of Quotient Bioresearch strains (Table 4); assay type: cell-based, Haemophilus influenzae; conditions: for MIC50: 16 h, Median of the strain panel
[5] = test system: Streptococcus pyogenes (4 strains); assay: MIC range, broader panel of Quotient Bioresearch strains (Table 3); conditions: for MIC50: read-out: MIC Range Median, Streptococcus pyogenes (4 strains)
[6] = test system: Klebsiella pneumonia (4 strains); assay: MIC range, broader panel of Quotient Bioresearch strains (Table 4); assay type: cell-based; conditions: Klebsiella pneumoniae; for MIC50: read-out: MIC Range Median, Klebsiella pneumonia (4 strains)
[7] = test system: Burkholderia cepacia (5 strains); assay: as above; assay type: cell-based; conditions: for MIC50: read-out: MIC Range Median, Burkholderia cepacia (5 strains)
[8] = test system: Enterococcus faecium (3 strains); assay: MIC range, broader panel of Quotient Bioresearch strains (Table 3); conditions: for MIC50: read-out: MIC Range Median, Enterococcus faecium (3 strains)
[9] = test system: Pseudomonas aeruginosa (12 strains); assay: MIC range, broader panel of Quotient Bioresearch strains (Table 4); assay type: cell-based; conditions: for MIC50: read-out: MIC Range Median, Pseudomonas aeruginosa (12 strains)
[10] = test system: Staphylococcus aureus (16 strains); assay: MIC range, broader panel of Quotient Bioresearch strains (Table 3); conditions: for MIC50: read-out: MIC Range Median, Staphylococcus aureus (16 strains)
[11] = test system: Group C Streptococcus (4 strains); assay: as above; conditions: for MIC50: read-out: MIC Range Median, Group C Streptococcus (4 strains)
[12] = test system: Acinetobacter baumannii (12 strains); assay: MIC range, broader panel of Quotient Bioresearch strains (Table 4); assay type: cell-based; conditions: for MIC50: read-out: MIC Range Median, Acinetobacter baumannii (12 strains)
[13] = test system: Bacterial strains injected into thigh muscles; assay type: in vivo, mice; conditions: MRSA ATCC 43300, mouse thigh, 25 mg/kg i.v. once
[14] = read-out: MIC Range High, Escherichia coli (6 strains)
[15] = read-out: MIC Range Low, Escherichia coli (6 strains)
[16] = read-out: MIC Range High, Streptococcus pneumonia (5 strains)
[17] = read-out: MIC Range Low, Streptococcus pneumonia (5 strains)
[18] = read-out: MIC Range High, Enterococcus faecalis (5 strains)
[19] = read-out: MIC Range Low, Enterococcus faecalis (5 strains)
[20] = High of the strain panel, read-out: MIC Range High, Haemophilus influenza (5 strains)
[21] = Low of the strain panel, read-out: MIC Range Low, Haemophilus influenza (5 strains)
[22] = read-out: MIC Range High, Streptococcus pyogenes (4 strains)
[23] = read-out: MIC Range Low, Streptococcus pyogenes (4 strains)
[24] = read-out: MIC Range High, Klebsiella pneumonia (4 strains)
[25] = read-out: MIC Range Low, Klebsiella pneumonia (4 strains)
[26] = read-out: MIC Range High, Burkholderia cepacia (5 strains)
[27] = read-out: MIC Range Low, Burkholderia cepacia (5 strains)
[28] = read-out: MIC Range High, Enterococcus faecium (3 strains)
[29] = read-out: MIC Range Low, Enterococcus faecium (3 strains)
[30] = read-out: MIC Range High, Pseudomonas aeruginosa (12 strains)
[31] = read-out: MIC Range High, Staphylococcus aureus (16 strains)
[32] = read-out: MIC Range Low, Staphylococcus aureus (16 strains)
[33] = read-out: MIC Range High, Group C Streptococcus (4 strains)
[34] = read-out: MIC Range Low, Group C Streptococcus (4 strains)
[35] = read-out: MIC Range High, Acinetobacter baumannii (12 strains)
[36] = read-out: MIC Range Low, Acinetobacter baumannii (12 strains)
[37] = read-out: MIC Range Low, Pseudomonas aeruginosa (12 strains)

Structure (SMILES): Cc1c(-c2ccc(CN)cc2)ccn2c(=O)c(C(=O)[O-])cc(C3CC3)c12.[K+] [Example 31 K salt, potassium 8-(4-(amino-methyl)-phenyl)-1-cyclopropyl-9-methyl-4-oxo-4H-quinolizine-3-carboxylate]
- MIC [1, 14]: 32 µg/mL
- MIC [1, 15]: ≤ 0.015 µg/mL
- MIC50 [1]: 8 µg/mL
- MIC [2, 16]: 0.25 µg/mL
- MIC [2, 17]: 0.06 µg/mL
- MIC50 [2]: 0.12 µg/mL
- MIC [3, 18]: 4 µg/mL
- MIC [3, 19]: 0.06 µg/mL
- MIC50 [3]: 0.12 µg/mL
- MIC50 [4]: ≤ 0.015 µg/mL
- MIC [4, 20]: ≤ 0.015 µg/mL
- MIC [4, 21]: ≤ 0.015 µg/mL
- MIC [5, 22]: 0.25 µg/mL
- MIC [5, 23]: 0.06 µg/mL
- MIC50 [5]: 0.09 µg/mL
- MIC [6, 24]: 32 µg/mL
- MIC [6, 25]: 0.03 µg/mL
- MIC50 [6]: 9 µg/mL
- MIC [7, 26]: 1 µg/mL
- MIC [7, 27]: 0.12 µg/mL
- MIC50 [7]: 0.5 µg/mL
- MIC [8, 28]: 8 µg/mL
- MIC [8, 29]: 0.5 µg/mL
- MIC50 [8]: 4 µg/mL
- MIC [9, 30]: > 32 µg/mL
- MIC50 [9]: 8 µg/mL
- MIC [10, 31]: 2 µg/mL
- MIC [10, 32]: ≤ 0.015 µg/mL
- MIC50 [10]: 0.5 µg/mL
- MIC [11, 33]: 0.12 µg/mL
- MIC [11, 34]: 0.06 µg/mL
- MIC50 [11]: 0.09 µg/mL
- MIC [12, 35]: > 32 µg/mL
- MIC [12, 36]: 0.03 µg/mL
- MIC50 [12]: 8 µg/mL

Structure (SMILES): Cc1c(-c2ccncc2)ccn2c(=O)c(C(=O)[O-])cc(C3CC3)c12.[K+] [Example 16 K salt, potassium 1-cyclopropyl-9-methyl-4-oxo-8-(pyridin-4-yl)-4H-quinolizine-3-carboxylate]
- MIC [1, 14]: > 32 µg/mL
- MIC [1, 15]: 0.03 µg/mL
- MIC50 [1]: > 32 µg/mL
- MIC [2, 16]: 1 µg/mL
- MIC [2, 17]: 0.5 µg/mL
- MIC50 [2]: 0.5 µg/mL
- MIC [3, 18]: 8 µg/mL
- MIC [3, 19]: 0.25 µg/mL
- MIC50 [3]: 0.25 µg/mL
- MIC50 [4]: ≤ 0.015 µg/mL
- MIC [4, 20]: ≤ 0.015 µg/mL
- MIC [4, 21]: ≤ 0.015 µg/mL
- MIC [5, 22]: 1 µg/mL
- MIC [5, 23]: 0.25 µg/mL
- MIC50 [5]: 0.375 µg/mL
- MIC [6, 24]: > 32 µg/mL
- MIC [6, 25]: 0.12 µg/mL
- MIC50 [6]: 16 µg/mL
- MIC [7, 26]: 0.5 µg/mL
- MIC [7, 27]: 0.25 µg/mL
- MIC50 [7]: 0.25 µg/mL
- MIC [8, 28]: 16 µg/mL
- MIC [8, 29]: 1 µg/mL
- MIC50 [8]: 8 µg/mL
- MIC [9, 30]: > 32 µg/mL
- MIC [9, 37]: 2 µg/mL
- MIC50 [9]: 16 µg/mL
- MIC [10, 31]: 1 µg/mL
- MIC [10, 32]: ≤ 0.015 µg/mL
- MIC50 [10]: 1 µg/mL
- MIC [11, 33]: 0.5 µg/mL
- MIC [11, 34]: 0.25 µg/mL
- MIC50 [11]: 0.25 µg/mL
- MIC [12, 35]: > 32 µg/mL
- MIC [12, 36]: 0.12 µg/mL
- MIC50 [12]: 16 µg/mL

Structure (SMILES): Cc1c(-c2ccc(N)cc2)c(F)cn2c(=O)c(C(=O)[O-])cc(C3CC3)c12.[K+] [Example 5 K salt, potassium 8-(4-amino-phenyl)-1-cyclopropyl-7-fluoro-9-methyl-4-oxo-4H-quinolizine-3-carboxylate]
- MIC [1, 14]: 16 µg/mL
- MIC [1, 15]: 0.03 µg/mL
- MIC50 [1]: 8 µg/mL
- MIC [2, 16]: 0.25 µg/mL
- MIC [2, 17]: 0.12 µg/mL
- MIC50 [2]: 0.12 µg/mL
- MIC [3, 18]: 1 µg/mL
- MIC [3, 19]: 0.03 µg/mL
- MIC50 [3]: 0.06 µg/mL
- MIC50 [4]: ≤ 0.015 µg/mL
- MIC [4, 20]: ≤ 0.015 µg/mL
- MIC [4, 21]: ≤ 0.015 µg/mL
- MIC [5, 22]: 0.5 µg/mL
- MIC [5, 23]: 0.12 µg/mL
- MIC50 [5]: 0.12 µg/mL
- MIC [6, 24]: 16 µg/mL
- MIC [6, 25]: 0.12 µg/mL
- MIC50 [6]: 10 µg/mL
- MIC [7, 26]: 0.5 µg/mL
- MIC [7, 27]: 0.12 µg/mL
- MIC50 [7]: 0.25 µg/mL
- MIC [8, 28]: 4 µg/mL
- MIC [8, 29]: 0.25 µg/mL
- MIC50 [8]: 1 µg/mL
- MIC [9, 30]: 16 µg/mL
- MIC [9, 37]: 1 µg/mL
- MIC50 [9]: 4 µg/mL
- MIC [10, 31]: 0.25 µg/mL
- MIC [10, 32]: ≤ 0.015 µg/mL
- MIC50 [10]: 0.12 µg/mL
- MIC [11, 33]: 0.12 µg/mL
- MIC [11, 34]: 0.06 µg/mL
- MIC50 [11]: 0.06 µg/mL
- MIC [12, 35]: 16 µg/mL
- MIC [12, 36]: 0.06 µg/mL
- MIC50 [12]: 6 µg/mL

Structure (SMILES): CN[C@H](CC(C)C)C(=O)N[C@H]1C(=O)N[C@@H](CC(N)=O)C(=O)N[C@H]2C(=O)N[C@H]3C(=O)N[C@H](C(=O)N[C@H](C(=O)O)c4cc(O)cc(O)c4-c4cc3ccc4O)[C@H](O)c3ccc(c(Cl)c3)Oc3cc2cc(c3O[C@@H]2O[C@H](CO)[C@@H](O)[C@H](O)[C@H]2O[C@H]2C[C@](C)(N)[C@H](O)[C@H](C)O2)Oc2ccc(cc2Cl)[C@H]1O [vancomycin]
- Log reduction (LgR) from vehicle control (CFU/g) [13]: 2.71
